Data as given in the NIST ThermoML archive (doi:10.1016/j.tca.2015.06.017).

Assay: xn = mol fraction of the nth substance listed
Conditions: Liquid, Vibrating tube method

CCC(C)Cl (stereo not drawn) [2-chlorobutane] + CCCCCCC
mass density [kg/m3]
Conditions | 303.15 K | 313.15 K | 323.15 K
100 kPa, x2 = 0.0524 | 847.91 | 836.56 | 825.09
100 kPa, x2 = 0.1018 | 835.49 | 824.33 | 813.02
100 kPa, x2 = 0.1968 | 813.06 | 802.22 | 791.28
100 kPa, x2 = 0.3006 | 790.36 | 779.88 | 769.26
100 kPa, x2 = 0.4029 | 769.73 | 759.54 | 749.24
100 kPa, x2 = 0.5017 | 751.19 | 741.34 | 731.3
100 kPa, x2 = 0.6008 | 733.91 | 724.36 | 714.64
100 kPa, x2 = 0.7023 | 717.52 | 708.18 | 698.73
100 kPa, x2 = 0.7977 | 703.14 | 694.03 | 684.8
100 kPa, x2 = 0.8986 | 688.99 | 680.16 | 671.19
100 kPa, x2 = 0.952 | 681.86 | 673.13 | 664.27
2000 kPa, x2 = 0.0524 | 850.2 | 839.05 | 827.83
2000 kPa, x2 = 0.1018 | 837.83 | 826.85 | 815.67
2000 kPa, x2 = 0.1968 | 815.38 | 804.68 | 793.94
2000 kPa, x2 = 0.3006 | 792.62 | 782.33 | 771.89
2000 kPa, x2 = 0.4029 | 771.9 | 761.96 | 751.76
2000 kPa, x2 = 0.5017 | 753.34 | 743.67 | 733.83
2000 kPa, x2 = 0.6008 | 736.05 | 726.67 | 717.08
2000 kPa, x2 = 0.7023 | 719.64 | 710.46 | 701.07
2000 kPa, x2 = 0.7977 | 705.19 | 696.31 | 687.1
2000 kPa, x2 = 0.8986 | 691.08 | 682.39 | 673.45
2000 kPa, x2 = 0.952 | 683.95 | 675.34 | 666.5
5000 kPa, x2 = 0.0524 | 853.75 | 842.87 | 831.91
5000 kPa, x2 = 0.1018 | 841.34 | 830.59 | 819.82
5000 kPa, x2 = 0.1968 | 818.82 | 808.31 | 797.9
5000 kPa, x2 = 0.3006 | 795.97 | 785.99 | 775.73
5000 kPa, x2 = 0.4029 | 775.25 | 765.53 | 755.62
5000 kPa, x2 = 0.5017 | 756.66 | 747.19 | 737.6
5000 kPa, x2 = 0.6008 | 739.33 | 730.09 | 720.78
5000 kPa, x2 = 0.7023 | 722.77 | 713.8 | 704.73
5000 kPa, x2 = 0.7977 | 708.3 | 699.58 | 690.71
5000 kPa, x2 = 0.8986 | 694.14 | 685.57 | 677.02
5000 kPa, x2 = 0.952 | 686.97 | 678.46 | 670.04
7000 kPa, x2 = 0.0524 | 856.02 | 845.3 | 834.54
7000 kPa, x2 = 0.1018 | 843.56 | 832.97 | 822.46
7000 kPa, x2 = 0.1968 | 820.99 | 810.78 | 800.49
7000 kPa, x2 = 0.3006 | 798.15 | 788.3 | 778.37
7000 kPa, x2 = 0.4029 | 777.41 | 767.84 | 758.11
7000 kPa, x2 = 0.5017 | 758.81 | 749.48 | 740.05
7000 kPa, x2 = 0.6008 | 741.44 | 732.35 | 723.19
7000 kPa, x2 = 0.7023 | 724.78 | 716.03 | 707.1
7000 kPa, x2 = 0.7977 | 710.27 | 701.8 | 693.06
7000 kPa, x2 = 0.8986 | 696.07 | 687.74 | 679.34
7000 kPa, x2 = 0.952 | 688.88 | 680.62 | 672.34
10000 kPa, x2 = 0.0524 | 859.35 | 848.77 | 838.27
10000 kPa, x2 = 0.1018 | 846.8 | 836.51 | 826.08
10000 kPa, x2 = 0.1968 | 824.17 | 814.23 | 804.11
10000 kPa, x2 = 0.3006 | 801.36 | 791.7 | 781.87
10000 kPa, x2 = 0.4029 | 780.55 | 771.16 | 761.62
10000 kPa, x2 = 0.5017 | 761.91 | 752.73 | 743.56
10000 kPa, x2 = 0.6008 | 744.48 | 735.56 | 726.61
10000 kPa, x2 = 0.7023 | 727.81 | 719.19 | 710.43
10000 kPa, x2 = 0.7977 | 713.22 | 704.84 | 696.28
10000 kPa, x2 = 0.8986 | 699 | 690.69 | 682.48
10000 kPa, x2 = 0.952 | 691.77 | 683.56 | 675.45
20000 kPa, x2 = 0.0524 | 869.52 | 859.69 | 849.8
20000 kPa, x2 = 0.1018 | 857 | 847.28 | 837.53
20000 kPa, x2 = 0.1968 | 834.1 | 824.81 | 815.4
20000 kPa, x2 = 0.3006 | 811.1 | 802.08 | 792.88
20000 kPa, x2 = 0.4029 | 790.07 | 781.34 | 772.5
20000 kPa, x2 = 0.5017 | 771.19 | 762.72 | 754.11
20000 kPa, x2 = 0.6008 | 753.6 | 745.36 | 737
20000 kPa, x2 = 0.7023 | 736.87 | 728.79 | 720.73
20000 kPa, x2 = 0.7977 | 722.07 | 714.29 | 706.35
20000 kPa, x2 = 0.8986 | 707.69 | 699.96 | 692.38
20000 kPa, x2 = 0.952 | 700.38 | 692.74 | 685.27
30000 kPa, x2 = 0.0524 | 878.79 | 869.48 | 860.04
30000 kPa, x2 = 0.1018 | 866.11 | 856.99 | 847.72
30000 kPa, x2 = 0.1968 | 843.05 | 834.35 | 825.47
30000 kPa, x2 = 0.3006 | 819.96 | 811.43 | 802.73
30000 kPa, x2 = 0.4029 | 798.75 | 790.51 | 782.02
30000 kPa, x2 = 0.5017 | 779.74 | 771.71 | 763.53
30000 kPa, x2 = 0.6008 | 761.98 | 754.16 | 746.23
30000 kPa, x2 = 0.7023 | 745.03 | 737.41 | 729.67
30000 kPa, x2 = 0.7977 | 730.14 | 722.74 | 715.26
30000 kPa, x2 = 0.8986 | 715.59 | 708.23 | 700.97
30000 kPa, x2 = 0.952 | 708.22 | 700.93 | 693.82
40000 kPa, x2 = 0.0524 | 887.22 | 878.27 | 869.34
40000 kPa, x2 = 0.1018 | 874.41 | 865.7 | 856.96
40000 kPa, x2 = 0.1968 | 851.38 | 842.91 | 834.4
40000 kPa, x2 = 0.3006 | 827.93 | 819.81 | 811.6
40000 kPa, x2 = 0.4029 | 806.62 | 798.72 | 790.72
40000 kPa, x2 = 0.5017 | 787.49 | 779.77 | 772.1
40000 kPa, x2 = 0.6008 | 769.55 | 762.09 | 754.63
40000 kPa, x2 = 0.7023 | 752.43 | 745.16 | 737.89
40000 kPa, x2 = 0.7977 | 737.42 | 730.38 | 723.24
40000 kPa, x2 = 0.8986 | 722.69 | 715.74 | 708.82
40000 kPa, x2 = 0.952 | 715.28 | 708.38 | 701.63
50000 kPa, x2 = 0.0524 | 894.96 | 886.46 | 877.82
50000 kPa, x2 = 0.1018 | 882.16 | 873.81 | 865.47
50000 kPa, x2 = 0.1968 | 858.96 | 850.85 | 842.71
50000 kPa, x2 = 0.3006 | 835.46 | 827.58 | 819.72
50000 kPa, x2 = 0.4029 | 813.98 | 806.37 | 798.76
50000 kPa, x2 = 0.5017 | 794.72 | 787.33 | 779.9
50000 kPa, x2 = 0.6008 | 776.69 | 769.48 | 762.28
50000 kPa, x2 = 0.7023 | 759.44 | 752.43 | 745.43
50000 kPa, x2 = 0.7977 | 744.29 | 737.47 | 730.63
50000 kPa, x2 = 0.8986 | 729.42 | 722.77 | 716.08
50000 kPa, x2 = 0.952 | 721.96 | 715.34 | 708.79
60000 kPa, x2 = 0.0524 | 902.31 | 894.03 | 885.83
60000 kPa, x2 = 0.1018 | 889.34 | 881.29 | 873.29
60000 kPa, x2 = 0.1968 | 866.09 | 858.17 | 850.37
60000 kPa, x2 = 0.3006 | 842.43 | 834.83 | 827.3
60000 kPa, x2 = 0.4029 | 820.82 | 813.47 | 806.2
60000 kPa, x2 = 0.5017 | 801.47 | 794.34 | 787.21
60000 kPa, x2 = 0.6008 | 783.34 | 776.43 | 769.46
60000 kPa, x2 = 0.7023 | 766 | 759.35 | 752.51
60000 kPa, x2 = 0.7977 | 750.71 | 744.21 | 737.59
60000 kPa, x2 = 0.8986 | 735.66 | 729.29 | 722.89
60000 kPa, x2 = 0.952 | 728.17 | 721.82 | 715.52
65000 kPa, x2 = 0.0524 | 905.77 | 897.67 | 889.59
65000 kPa, x2 = 0.1018 | 892.87 | 884.92 | 877.02
65000 kPa, x2 = 0.1968 | 869.57 | 861.74 | 854.06
65000 kPa, x2 = 0.3006 | 845.82 | 838.38 | 830.95
65000 kPa, x2 = 0.4029 | 824.21 | 816.9 | 809.85
65000 kPa, x2 = 0.5017 | 804.75 | 797.7 | 790.81
65000 kPa, x2 = 0.6008 | 786.56 | 779.7 | 772.98
65000 kPa, x2 = 0.7023 | 769.12 | 762.47 | 755.89
65000 kPa, x2 = 0.7977 | 753.9 | 747.31 | 740.95
65000 kPa, x2 = 0.8986 | 738.65 | 732.32 | 726.04
65000 kPa, x2 = 0.952 | 731.1 | 724.77 | 718.69
